Measurements reported in patent US11697669B2, “Hemi-citrate salts of GABA-A positive allosteric modulator and crystalline form thereof” (priority 2021, dated 2023).
Where a name gives a salt, the structure may show the parent alone. Read-outs that look alike come from different tables or passages of the source.

Columns and labels:
Assay type in all cases: physicochemical
[1] = Gelation experiments in aqueous media; details: for gelation during tablet dissolution experiments: certain conditions
Experimental: To confirm these findings, controlled experiments were conducted where the free base, mono-citrate, and hemi-citrate salts of Compound 1 were dissolved in aqueous media at concentrations between 0.5 mg/mL and 10 mg/mL. The dissolution experiments were performed in either 0.1 N HCl, water, or pH 7.4 buffer as aqueous media.

[2] = Heckel analysis on compaction simulator (yield pressure, strain rate sensitivity, crushing strength); details: for yield pressure, fast press speed: punch speed 300 mm/s; for yield pressure, slow speed: punch speed 0.1 mm/s
Experimental: The aim of the Heckel test is to compress the material under controlled conditions to derive the yield pressure of the bulk material. A known weight of material is compressed within a 10 mm diameter die with flat faced punches moving at a set speed. The force on the punch is accurately measured at frequent intervals whilst the displacement of the punches is used to calculate the volume of the powder. The yield pressure is calculated at slow and fast punch speeds to assess the time-dependent component to deformation of the material.
A known weight of pure drug is compacted to theoretical zero porosity using 10 mm diameter flat faced punches. The Compaction Simulator was used under the following conditions:
During compression the location of the punch tips are accurately determined, and the force measured by load cells producing a record of the primary compression parameters. Temperature and humidity were monitored at intervals during the test.
The data were analyzed by the Compaction Analysis software program to generate values for yield pressure (Py) using the Heckel equation:
[formula] where D=the relative density of the compact; • P=Pressure applied; and • K=Gradient of the line in the linear region; [Reference: R. W. Heckel. Trans. Metall. Soc. AIME 221 (1961)1001-1008].
For some materials, the deformation characteristics change with rate of applied force. This can be estimated by calculating the Strain Rate Sensitivity. The yield pressure at high speed compression is compared to that at slow speed using the following equation:
[formula] [Reference: R. J. Roberts and R. C. Roe, Chem. Eng. Sci. 42(1987) p 903]. Results

[3] = Dynamic vapor sorption (DVS) at room temperature and 40° C.
Experimental: DVS was measured via a SMS (Surface Measurement System) DVS Intrinsic. Parameters for DVS data collection were as follows:
A second endotherm (having an onset at 121.5° C.) associated with melting of the dehydrated phase (ΔH: 15.20 J/g) was followed by a rapid decomposition as temperature continued to increase (FIG. 3). Because of the low onset of dehydration, the DVS was measured at both room temperature and at 40° C. to predict the stability of the crystalline phase at 40° C. […] A 1.5% weight loss was observed between 95% and 20% RH, and a 2.9% weight loss was observed between 20% and 0% RH, for a total loss of […] across the entire cycle. […] After measuring the hygroscopicity by DVS, an XRPD pattern was collected for comparison to the original material and found to correspond well to the pattern of the room temperature sample post-DVS temperature cycle (FIG. 6).

[4] = Tablet dissolution: percent release of Compound 1 from acidified tablet formulation
Experimental: FIG. 13 is a graph showing percent release of Compound 1 over time for an acidified tablet formulation containing Compound 1 hemi-citrate salt Form I. Tablets were used initially or maintained at 40° C./75% RH for 2 weeks, 1 month, or 2 months.
FIG. 14 is a graph showing percent release of Compound 1 over time for an acidified tablet formulation containing Compound 1 mono-citrate salt (Form A). Tablets were used initially or stored at 40° C./75% RH for 2 weeks, 1 month, or 2 months.

[5] = Tablet stability: C17 epimer in sealed bottles stored at 40° C./75% RH; details: tablet dosage form, sealed bottle, 1 or 2 months, versus mono-citrate salt
Experimental: FIG. 12 is a graph comparing the amount of the C17 epimer, a degradation product of Compound 1, over time for a tablet formulation containing Compound 1 hemi-citrate salt (Form I; left column in both “1 month” and “2 months”) or Compound 1 mono-citrate salt (Form A; right column in both “1 month” and “2 months”) in sealed bottles stored at 40° C./75% RH).

[6] = fast speed 300 mm/s, single runs, 21.7° C./38.9% RH

Compound: COC[C@@]1(O)CC[C@@]2(C)[C@@H](CC[C@@H]3[C@@H]2CC[C@]2(C)[C@@H](C(=O)Cn4ccnc4)CC[C@@H]32)C1.O=C(O)CC(O)(CC(=O)O)C(=O)O [Compound 1 mono-citrate salt, 3α-Hydroxy-3β-methoxymethyl-21-(1′-imidazolyl)-5α-pregnan-20-one, reference compound]
- gelation ([1]; 0.1 N HCl, 5 mg/mL): rapidly gelled
- gelation during tablet dissolution experiments [1]: significant gelation
- gelation ([1]; water or pH 7.4 buffer): did not gel
- classification of compaction properties ([2]; from slow speed yield pressure): moderately brittle/ductile compaction properties
- yield pressure, fast press speed [2]: 109 MPa

Compound: COC[C@@]1(O)CC[C@@]2(C)[C@@H](CC[C@@H]3[C@@H]2CC[C@]2(C)[C@@H](C(=O)Cn4ccnc4)CC[C@@H]32)C1 [Compound 1 hemi-citrate salt Form I, 3α-Hydroxy-3β-methoxymethyl-21-(1′-imidazolyl)-5α-pregnan-20-one]
- hygroscopicity [3]: slightly hygroscopic
- reversibility of water loss ([3]; 40° C.): fully reversible
- total loss ([3]; 40° C.): 5.4%
- water absorption from 20% to 80% RH ([3]; 40° C.): 1.8%
- water lost between 95% and 20% RH ([3]; 40° C.): 2.2%
- water lost from 20% to 0% RH ([3]; 40° C.): 3.2%
- reversibility of water loss ([3]; room temperature): fully reversible
- total loss across the entire cycle ([3]; room temperature): 4.3%
- water uptake between 20% and 80% RH ([3]; room temperature): 1.2%
- weight loss between 20% and 0% RH ([3]; room temperature): 2.9%
- weight loss between 95% and 20% RH ([3]; room temperature): 1.5%
- Strain rate sensitivity (SRS) ([2]; fast versus slow speed yield pressure): 21.4%
- yield pressure, slow speed [2]: 69 MPa

Compound: COC[C@@]1(O)CC[C@@]2(C)[C@@H](CC[C@@H]3[C@@H]2CC[C@]2(C)[C@@H](C(=O)Cn4ccnc4)CC[C@@H]32)C1.O=C(O)CC(O)(CC(=O)O)C(=O)O [Compound 1 mono-citrate salt Form A]
- Compact observations [2, 6]: Laminated
- Ejection Force [2, 6]: 0.740 kN
- yield pressure, slow speed [2]: 84 MPa
- Compact observations ([2]; slow speed 0.1 mm/s, single runs, 21.6° C./37.1% RH): Ok

Compound: COC[C@@]1(O)CC[C@@]2(C)[C@@H](CC[C@@H]3[C@@H]2CC[C@]2(C)[C@@H](C(=O)Cn4ccnc4)CC[C@@H]32)C1 [Compound 1 hemi-citrate salt, 3α-Hydroxy-3β-methoxymethyl-21-(1′-imidazolyl)-5α-pregnan-20-one]
- release of Compound 1 over time ([4]; acidified formulation, initial and open dish at 40° C./75% RH for 2 weeks, 1 month or 2 months): greater than the release of Compound 1 from the same acidified formulation of the Compound 1 mono-citrate salt
- susceptibility to dissolution slow-down of the tablet ([4]; tablet, versus mono-citrate salt): less susceptible than the Compound 1 mono-citrate salt to dissolution slow-down
- gelation ([1]; any of the aqueous media (0.1 N HCl, water, pH 7.4 buffer), concentrations up to 10 mg/mL): did not gel
- gelation during tablet dissolution experiments [1]: not prone to gelation
- classification of compaction properties [2]: soft ductile compaction properties
- yield pressure, fast press speed [2]: 84 MPa
- degradation product (C17-epimer) generated [5]: less degradation product

Compound: COC[C@@]1(O)CC[C@@]2(C)[C@@H](CC[C@@H]3[C@@H]2CC[C@]2(C)[C@@H](C(=O)Cn4ccnc4)CC[C@@H]32)C1 [Compound 1, 3α-Hydroxy-3β-methoxymethyl-21-(1′-imidazolyl)-5α-pregnan-20-one]
- gelation ([1]; 0.1 N HCl, concentrations as low as 1 mg/mL): rapidly gelled
- gelation ([1]; water or pH 7.4 buffer): did not gel
